How the values were obtained:
[1] = test system: CCD 1059 normal human skin fibroblasts; assay: Measurement of glutathione activity (intracellular glutathione, method of Baker et al.); format: cell-based; conditions: 24 hours
Method: The cells were then collected after being cultured for 24 hours. […] The collected cells were disrupted using sonication, and proteins were removed using metaphosphoric acid. Then, the solutions were again neutralized, to thereby produce samples used for glutathione measurement. The measurement of glutathione was performed using the method of Baker et al. (Anal. […] Then, the absorbance at 405 nm was measured, and this was taken as the glutathione concentration.

[2] = test system: CCD 1059 normal human skin fibroblasts; assay: Effect of combined use of S-containing compound (cysteine) on intracellular glutathione; format: cell-based; conditions: compound 2.5 μg/ml, control = cysteine only
Method: CCD 1059 normal human skin fibroblasts (1.5×10^5 cells) (manufactured by Dainippon Pharmaceutical Co., Ltd.) were inoculated in a petri dish (manufactured by Nunc) with a diameter of 6 cm, and the cells were cultured in Dulbecco's modified Eagle's medium (DMEM) containing 10% deactivated fetal bovine serum (hereafter abbreviated to “FBS”) for 3 days at 37° C. in the presence of 5% carbon dioxide gas. When the cells were 80% confluent, the medium was exchanged with DMEM containing 0.5% fetal bovine serum (hereafter abbreviated to “FBS” in some cases). After the cells were naturalized for 24 hours, the culture medium was removed by suction and exchanged with fresh DMEM containing 0.5% FBS and the test substances were dissolved in ethanol. […] The cells were then collected after being cultured for 24 hours. […] The collected cells were disrupted using sonication, and proteins were removed using metaphosphoric acid. Then, the solutions were again neutralized, to thereby produce samples used for glutathione measurement. […] To describe the method briefly, reduced nicotinamide adenine dinucleotide phosphate (NADPH), glutathione reductase, and 5,5′-dithiobis(2-nitrobenzoic acid) (DNTB) provided as a coloring agent were added to a 2-(N-morpholino)ethanesulfonate buffer (MES buffer), and the mixture was reacted with each measurement sample or a standard substance used to produce a calibration curve. Then, the absorbance at 405 nm was measured, and this was taken as the glutathione concentration.
However, since it was desired to add an S-containing compound at an arbitrary concentration, the culture medium used in the case of this addition was DMEM that contains no S-containing compound (i.e., a medium that was free of methionine, cysteine, or cystine). […] A comparison was made by calculation from the ratio relative to respective control groups in which only cysteine was added in the same amounts (groups in which only cysteine was added were taken as control groups in which the respective final concentrations of cysteine were 200 and 400 μM, and the activities of the respective test substance groups were evaluated as ratios relative to the control groups with the activities of the respective control groups taken as 1).

[3] = test system: CCD 1059 normal human skin fibroblasts; assay: Effect of combined use of S-containing compound (cystine) on intracellular glutathione; format: cell-based; conditions: compound 10 μg/ml, control = cystine only
Method: CCD 1059 normal human skin fibroblasts (1.5×10^5 cells) (manufactured by Dainippon Pharmaceutical Co., Ltd.) were inoculated in a petri dish (manufactured by Nunc) with a diameter of 6 cm, and the cells were cultured in Dulbecco's modified Eagle's medium (DMEM) containing 10% deactivated fetal bovine serum (hereafter abbreviated to “FBS”) for 3 days at 37° C. in the presence of 5% carbon dioxide gas. When the cells were 80% confluent, the medium was exchanged with DMEM containing 0.5% fetal bovine serum (hereafter abbreviated to “FBS” in some cases). […] Then, the absorbance at 405 nm was measured, and this was taken as the glutathione concentration.
However, since it was desired to add an S-containing compound at an arbitrary concentration, the culture medium used in the case of this addition was DMEM that contains no S-containing compound (i.e., a medium that was free of methionine, cysteine, and cystine). […] A comparison was made by calculation from the ratio relative to respective control groups in which only cystine was added (groups in which only cystine was added were taken as control groups, and the activities of the respective test substance groups were evaluated as ratios relative to the control groups with the activities of the respective control groups taken as 1).

[4] = test system: Clone 9 human liver cells; assay: Effect on liver cell (intracellular glutathione); conditions: compound 10 μg/ml, 24 hours
Method: Clone 9 human liver cells (8×10^6 cells) (manufactured by Dainippon Pharmaceutical Co., Ltd.) were inoculated in a petri dish (manufactured by Nunc) with a diameter of 6 cm, and the cells were cultured in DMEM containing 10% deactivated FBS for 3 days at 37° C. in the presence of 5% carbon dioxide gas. When the cells were 80% confluent, the medium was exchanged with DMEM containing 0.5% FBS. After the cells were naturalized for 24 hours, the culture medium was removed by suction and exchanged with fresh DMEM containing 0.5% FBS, and the test substances were dissolved in ethanol. […] 24 hours after the addition, the cells were collected, and glutathione measurements were performed by the method described in Example 5.

[5] = test system: CCD 1059 normal human skin fibroblasts; assay: Resistance to active oxygen (singlet oxygen, rose bengal) cell damage after glutathione potentiation; format: cell-based; conditions: compound 20 μg/ml, 24 h preincubation then removed; singlet oxygen exposure; untreated control 28
Method: Then, preincubation was performed for 24 hours at 37° C., so that the intracellular glutathione concentration was increased. […] The present test was performed in order to evaluate whether it was possible to alleviate the effects of the active oxygen that was generated by increasing the intracellular glutathione concentration, so that the plants, hydrolysates thereof, DPE, and DPE glycosides discovered by the present invention were completely removed after the preincubation.
After the cells were washed, rose bengal (which is a singlet oxygen generating agent) was dissolved in Hanks solution so as to have a final concentration of 50 μM, and was added to the cells. The cells were then irradiated for 10 minutes with visible light, so that the cells were exposed to singlet oxygen. The time for which the cells were immersed in Hanks solution and the time for which the cells were exposed to visible light were the same for all of the groups. After the exposure, the cells were again washed with Hanks solution, and the culture medium was exchanged with DMEM containing 10% FBS. After 3 days, the cells were counted by means of a Coulter counter, and the numbers of living cells were compared. In this comparison, an evaluation was performed with the number of cells in a non-exposed group that was not exposed to singlet oxygen taken as 100%. It is seen from Table 6 that the survival rates of the respective groups exposed to singlet oxygen were improved (compared to a group that was not treated with any test substance (control)) by the addition of the above-mentioned plant extracts, hydrolysates thereof, DPE, and DPE glycosides.

B16 melanoma cells = assay: Skin whitening test (melanin suppression); format: cell-based, mouse; conditions: 3 days; for Melanin suppression rate (compound): 20 μg/ml; for Melanin suppression rate (positive control): 3 mM
Method: Melanin suppressing activity was measured by the following test using the extracts of Lamium album, Euphrasia officinalis, Plantago psyllium, Plantago psyllium seeds, Olea europaea, Forsythia suspensa, Conandron ramondioides Siebold et Zucc, Osmanthus fragrans, Osmanthus asiaticus, Syringa vulgaris, Verbena officinalis L., and Momordica charantia L., and hydrolysates thereof obtained in Example 1, DPE obtained in Examples 3 and 4, and the DPE glycosides obtained in Example 5.
Cultured B16 melanoma cells derived from mouse provided as melanin producing cells were cultured in a minimum basic culture medium (MEM) to which FBS was added so as to have a final concentration of 10%. At a concentration of 3×10^3 cell/ml, those cells were inoculated in a 6-well plate (6 ml in each well), and were cultured in a CO2 incubator for 5 days, after which the culture medium was exchanged. […] Then, after further culturing for 3 days under the same conditions, the cells were washed and stripped by a scraper treatment. The cells were then solubilized with sodium dodecylsulfate (SDS), and the absorbance values at 475 nm and 260 nm were measured (these values were taken as S475 and S260). The melanin suppression rate was calculated using the following Equation 1, with the absorbance values at 475 nm and 260 nm obtained for cells cultured in a culture medium to which no test substances were added taken as C475 and C260, respectively. 3 mM vitamin C and 3 mM kojic acid were used as positive controls. As is shown in Tables 7 and 8, the production of melanin is suppressed by the addition of the test substances, so that the test substances show a skin whitening effect.

[6] = test system: cystine transporter (xCT); assay: Cystine transporter (xCT) production ability by Western blotting; format: cell-based, human; conditions: compound 20 μg/ml, 24 hours
Excerpt: When the cells were 80% confluent, the medium was exchanged with DMEM containing 0.5% FBS.

[7] = test system: gamma-glutamyl cysteine synthetase mRNA; assay: γ-glutamylcysteine synthetase production promoting activity by RT-PCR; format: cell-based, human; conditions: compound 20 μg/ml, 8 hours
Method: After 8 hours, total RNA was collected by using TRIZOL reagent (Life Technologies Oriental, Inc.) following a protocol.
Gamma-glutamyl cysteine synthetase mRNA and G3PDH mRNA expression promoting activities were measured with RT-PCR high (Toyobo Co., Ltd.) using the collected total RNA. The G3PDH gene is known as a housekeeping gene and expresses in all cells constantly, so that the gene is widely used as a control gene. The following primers were used for PCR: 5′-TGA AAC TCT GCA AGA GAA GOG G-3′ (SEQ ID NO: 1) and 5′-GCT TCA TCT GGA AAG AGO AGG G -3′ (SEQ ID NO: 2) (gamma-glutamyl cysteine synthetase); and 5′-ACCACAGTCCATGCCATCAC-3′ (SEQ ID NO: 3) and 5′-TCCACCACCCTGTTGCTGTA-3′ (SEQ ID NO: 4) (G3PDH). […] Then, the intensity of staining was measured using image analysis software ImageMaster 1D (manufactured by Amersham Pharmacia Biotech Co.). The group in which no test substances were added (1% ethanol) was taken as a control, and the amount of expression was evaluated by a comparison of the amounts of expression in cases where test substances were added (with a value obtained by dividing the staining intensity of the γ-glutamylcysteine synthetase mRNA by the staining intensity of G3PDH taken as 1). […]

rats = assay: Long-term oral administration to rats (toxicity); format: in vivo; conditions: 100 days, 1,000 mg/kg per day
Excerpt: DPE or a glycoside thereof has a low toxicity.

SMILES: OCCc1ccc(O)c(O)c1 [DPE, 2-(3,4-dihydroxyphenyl)ethanol]
- Glutathione enhancing activity (compound), ratio to control ([1]; 2.5 μg/ml): 1.36
- Glutathione enhancing activity (compound), ratio to control ([1]; 5 μg/ml): 1.85
- Glutathione enhancing activity (compound), ratio to control ([1]; 10 μg/ml): 2.33
- Glutathione enhancing activity (compound), ratio to control ([1]; 20 μg/ml): 2.74
- Combined effect with cysteine, ratio to control, cysteine 200 μM added group [2]: 1.25
- Combined effect with cysteine, ratio to control, cysteine 400 μM added group [2]: 1.89
- Combined effect with cystine, ratio to control, cystine 200 μM added group [3]: 3.42
- Effect on hepatocyte (glutathione), ratio to control [4]: 1.16
- Survival rate (%: based on non-exposed group) [5]: 61%
- Melanin suppression rate (compound) (B16 melanoma cells): 52.3%
- Amount of xCT expression (Relative to control) [6]: 4.8
- Gamma-glutamyl cysteine synthetase/G3PDH (Relative to control) [7]: 8.2
- Mortality (rats): no cases of mortality

SMILES: OC[C@H]1O[C@@H](OCCc2ccc(O)c(O)c2)[C@H](O)[C@@H](O)[C@@H]1O [DPE-1-O-β-D-Glucopyranocide, 2-(3,4-dihydroxyphenyl)ethanol-1-O-β-D-glucopyranocide]
- Survival rate (%: based on non-exposed group) [5]: 42%
- Melanin suppression rate (compound) (B16 melanoma cells): 24.6%

SMILES: OCCc1ccc(O)c(O[C@@H]2O[C@H](CO)[C@@H](O)[C@H](O)[C@H]2O)c1 [DPE-3′-O-β-D-Glucopyranocide, 2-(3,4-dihydroxyphenyl)ethanol-3′-O-β-D-glucopyranocide]
- Glutathione enhancing activity (compound), ratio to control ([1]; 2.5 μg/ml): 1.15
- Glutathione enhancing activity (compound), ratio to control ([1]; 5 μg/ml): 1.19
- Glutathione enhancing activity (compound), ratio to control ([1]; 10 μg/ml): 1.25
- Glutathione enhancing activity (compound), ratio to control ([1]; 20 μg/ml): 1.73
- Combined effect with cysteine, ratio to control, cysteine 200 μM added group [2]: 1.26
- Combined effect with cysteine, ratio to control, cysteine 400 μM added group [2]: 1.52
- Combined effect with cystine, ratio to control, cystine 200 μM added group [3]: 1.56
- Effect on hepatocyte (glutathione), ratio to control [4]: 1.26
- Survival rate (%: based on non-exposed group) [5]: 46%
- Melanin suppression rate (compound) (B16 melanoma cells): 32.3%
- Amount of xCT expression (Relative to control) [6]: 1.3
- Gamma-glutamyl cysteine synthetase/G3PDH (Relative to control) [7]: 3.8

SMILES: OCCc1ccc(O[C@@H]2O[C@H](CO)[C@@H](O)[C@H](O)[C@H]2O)c(O)c1 [DPE-4′-O-β-D-Glucopyranocide, 2-(3,4-dihydroxyphenyl)ethanol-4′-O-β-D-glucopyranocide]
- Survival rate (%: based on non-exposed group) [5]: 37%
- Melanin suppression rate (compound) (B16 melanoma cells): 35.4%

SMILES: O=c1cc(CO)occ1O [Kojic acid, reference compound]
- Melanin suppression rate (positive control) (B16 melanoma cells): 39.9%

SMILES: O=C1O[C@H]([C@@H](O)CO)C(O)=C1O [Vitamin C, reference compound]
- Melanin suppression rate (positive control) (B16 melanoma cells): 23.0%

Reference: patent publication US7740831B2, “Compositions for potentiating glutathione” (Fancl Corporation, priority 2001, dated 2010)
